# Reference: patent publication US12545745B2, “Method for treating a degenerative neurological disorders comprising administering ASM inhibitor” (KYUNGPOOK NATIONAL UNIVERSITY INDUSTRY-ACADEMIC COOPERATION …, priority 2013, dated 2026)
# Counter-ions that a name gives are not always drawn.
# T1: ASM (Mus musculus, UniProt Q04519)
# T1 construct: from tissue; host or cells: mouse serum/plasma and brain tissue (APP/PS1, RSD-stressed C57BL/6, FUS R521C mice)
# T1 sequence (Q04519 45-627): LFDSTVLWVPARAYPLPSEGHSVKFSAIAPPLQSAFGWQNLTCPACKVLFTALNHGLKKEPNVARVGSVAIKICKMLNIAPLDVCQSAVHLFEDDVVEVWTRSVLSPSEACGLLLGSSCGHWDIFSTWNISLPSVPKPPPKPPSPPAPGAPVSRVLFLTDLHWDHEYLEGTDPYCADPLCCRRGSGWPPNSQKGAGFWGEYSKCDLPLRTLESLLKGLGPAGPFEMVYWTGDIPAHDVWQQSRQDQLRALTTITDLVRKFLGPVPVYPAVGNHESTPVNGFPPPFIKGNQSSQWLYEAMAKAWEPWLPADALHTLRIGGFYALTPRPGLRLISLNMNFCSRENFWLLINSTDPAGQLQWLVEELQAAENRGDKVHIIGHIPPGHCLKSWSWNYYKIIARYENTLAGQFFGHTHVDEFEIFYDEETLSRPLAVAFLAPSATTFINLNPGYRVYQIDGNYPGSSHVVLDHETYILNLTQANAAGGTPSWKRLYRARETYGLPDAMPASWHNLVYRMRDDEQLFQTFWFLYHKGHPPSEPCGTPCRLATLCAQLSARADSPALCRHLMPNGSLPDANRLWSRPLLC
# B1: recombinant ASM: recombinant acid sphingomyelinase protein used to treat human fibroblast (protein)
# chain: LALSDSRVLWAPAEAHPLSPQGHPARLHRIVPRLRDVFGWGNLTCPICKGLFTAINLGLKKEPNVARVGSVAIKLCNLLKIAPPAVCQSIVHLFEDDMVEVWRRSVLSPSEACGLLLGSTCGHWDIFSSWNISLPTVPKPPPKPPSPPAPGAPVSRILFLTDLHWDHDYLEGTDPDCADPLCCRRGSGLPPASRPGAGYWGEYSKCDLPLRTLESLLSGLGPAGPFDMVYWTGDIPAHDVWHQTRQDQLRALTTVTALVRKFLGPVPVYPAVGNHESTPVNSFPPPFIEGNHSSRWLYEAMAKAWEPWLPAEALRTLRIGGFYALSPYPGLRLISLNMNFCSRENFWLLINSTDPAGQLQWLVGELQAAEDRGDKVHIIGHIPPGHCLKSWSWNYYRIVARYENTLAAQFFGHTHVDEFEVFYDEETLSRPLAVAFLAPSATTYIGLNPGYRVYQIDGNYSGSSHVVLDHETYILNLTQANIPGAIPHWQLLYRARETYGLPNTLPTAWHNLVYRMRGDMQLFQTFWFLYHKGHPPSEPCGTPCRLATLCAQLSARADSPALCRHLMPDGSLPEAQSLWPRPLFC
# Tests used:
# human fibroblast = assay: Autophagy (LC3-I to LC3-II conversion) in human fibroblast treated with recombinant ASM, M6P or NH4Cl; format: cell-based
# Experimental: Human fibroblast acquired from the Coriell Institute, and was cultured in DMEM medium containing 15% FBS at 37° C. and 5% of CO2. The cell lines were treated with recombinant ASM (1 μM to 10 μM), and then Western blotting and densitometric quantification were performed in the same manner as Example 2-1. The results are illustrated in FIG. 17 and FIG. 18.
# In order to confirm how ASM affects autophagy, a test was conducted as follows. Human fibroblast was treated with ASM alone, or treated with ASM in the presence of mannose-6-phosphate (M6P; 10 mM) relating to the action of placing lysosomal enzyme protein in lysosome, and then the accumulation of autophagosome was confirmed using Western blotting and densitometric quantification. The results are illustrated in FIG. 19.
# In order to confirm whether ASM increases the formation rate of autophagosome, or decreases the degradation rate of autophagosome, autophagic flux assay was performed. […] The results are illustrated in FIG. 20.
# Also, when treating with NH4Cl or ASM after culturing fibroblast of human with Alzheimer's disease in a serum-free medium or complete medium, the conversion rate from LC3-I to LC3-II was measured using Western blotting. The results are illustrated in FIG. 21 and FIG. 22.
# ASM = biological target: T1, ASM; assay: ASM activity / concentration level in serum (plasma) and brain tissue of APP/PS1 mice (UPLC); format: in vivo; details: APP/PS1 mice, AMI administered for four months, nine month old; FIG. 24
# Experimental: More specifically, 3 μl of plasma, brain tissue and fibroblast samples from each mouse were mixed with an ASM activity buffer, and stored at 37° C. The hydrolysis reaction was completed by adding 114 μl of ethanol to the mixed solution, and then the mixed solution was centrifuged. 30 μl of the supernatant was transferred into a glass vial, and then 5 μl was applied to the UPLC system. The ASM concentration level was quantified in comparison with a bodipy (aminoacetaldehyde) combined with sphingomyelin and ceramide. The sphingomyelin and ceramide levels were extracted and quantified according to a known method, by extracting lipid from the sample, resuspending the dried lipid extract in 25 μl of 0.2% Igepal CA-630 (Sigma-Aldrich), and quantifying the concentration level of each lipid using the UPLC system. […] The animal test conducted was approved by the Kyungpook National University Institutional Animal Care and Use Committee (IACUC). Transgenic mouse line overexpressing APPswe (hAPP695swe) and PS1 (presenilin-1M146V) based on C57BL/6 mice (Charles River, UK) were used as Alzheimer's animal models [hereinafter, APP mice: mice overexpressing APPswe, PS1 mice: overexpressing presenilin-1M146V; GlaxoSmithKline]. […] The concentration level of ASM was measured as follows. Specifically, 3μ ? of mouse serum, brain tissue and fibroblast samples were mixed with ASM activity buffer and stored at 37° C. 114 μ ? of ethanol was added to terminate the hydrolysis reaction, followed by centrifugation. […] The ASM concentration levels were quantified by comparison with sphingomyelin and Bodipy (aminoacetaldehyde) conjugated with ceramide. The extraction and quantification of the sphingomyelin and ceramide was carried out by extracting and drying the lipids from the sample according to a known conventional method, and resuspending the dried lipid extract to 25 μl of 0.2% Igepal CA-630 (Sigma-Aldrich), and the concentration levels of each lipid were quantitated using the UPLC system. […] The concentration level of ASM was measured as follows. […]
# β-amyloid = β-amyloid deposition in brain tissue of APP/PS1 mice (thioflavin S, immunofluorescence, ELISA); format: in vivo, mouse; details: cerebral cortex and hippocampus, AMI for four months, FIG. 25
# Experimental: First, the cerebral cortex and hippocampus tissue of each mouse prepared in Example 1-1 were isolated, and then a tissue fragment was obtained and this was dyed with thioflavin S according to a conventional known method. The results are illustrated in FIG. 3 (cerebral cortex) and FIG. 4 (hippocampus).
# Also, immunofluorescence was performed according to a conventional known method using anti-20G10 (mouse, 1:1000) antibody against Aβ42, anti-G30 (rabbit, […]) antibody against Aβ40, anti-Iba-1 (rabbit, 1:500, Wako) antibody, anti-GFAP (rabbit, 1:500, DAKO) antibody and anti-active caspase3 (rabbit, 1:50, Chemicon) antibody. Tissue fragments were observed using a confocal laser scanning microscope equipped with Fluoview SV1000 imaging software (Olympus FV1000, Japan) or an Olympus BX51 microscope, and the percentage of the area of the dyed area with respect to the area of the entire tissue was quantified using Metamorph software (Molecular Devices).
# Also, β-amyloid deposition was confirmed using commercially available ELISA kits (Biosource). More specifically, hemispheres of the brain of each mouse were homogenized in a buffer containing 0.02 M of guanidine. Thereafter, ELISA was performed for Aβ40 and Aβ42 according to the manufacturer's instructions.
# After fixing the cerebral and hippocampal tissues of the mice, 0.5% thioflavin S (Sigma-Aldrich), anti-20G10 antibodies (mouse, 1:1000) against Aβ42, anti-G30 antibodies (rabbit, […]) against Aβ40, anti-GFAP antibodies (rabbit, 1:500, DAKO), or anti-Iba-1 antibodies (rabbit, 1:500, Wako) were co-cultured. The tissues were analyzed using a laser scanning confocal microscope equipped with Fluoview SV1000 imaging software (Olympus FV1000, Japan) or an Olympus BX51 microscope. Percentage of stained area to total tissue area was quantified and analyzed using Metamorph software (Molecular Devices).
# After fixing the mouse brain and hippocampus, 0.5% thioflavin S (Sigma-Aldrich), anti-GFAP (rabbit, 1:500, DAKO), and anti-Iba-1 (rabbit, 1:500, WAKO) were co-cultured together. The regions were analyzed using a laser scanning confocal microscope equipped with Fluoview SV1000 imaging software (Olympus FV1000, Japan) or an Olympus BX51 microscope. Percentage of stained area to total tissue area was quantified and analyzed using Metamorph software (Molecular Devices).
# Proteins were extracted from mouse brain and hippocampus, and the amounts of Abeta40 (KHB3481, Invitrogen) and Abeta42 (KHB3441, Invitrogen) were measured using ELISA.
# APP/PS1 mice = assay: Morris water maze (MWM) test in APP/PS1 mice; format: in vivo, mouse; details: AMI for four months, vs control group, FIG. 26
# Experimental: More specifically, wild type mice, APP/PS1/ASM^+/− mice, ASM^+/− mice and APP/PS1 mice were used. The mice were given four trials per day for 10 days to learn the task, and on day 11, the mice were given a probe trial in which the platform was removed. The escape latency during the test period and the time spent in the target platform on day 11 were measured. The results are illustrated in FIG. 7 and FIG. 8.
# (§1) MWM (Morris water maze) experiments were performed in a conventional manner to identify potential effects on learning and memory. Briefly, for the MWM test, mouse were learned the task four times a day for 10 days, followed by the removal of the platform on the 11th day and subsequently a probe trial performed.
# as §1, with “mice” for “mouse”
# [1] = human fibroblast treated with ASM in the presence of M6P 10 mM, FIG. 19
# [2] = human fibroblast, recombinant ASM 1 μM to 10 μM, FIG. 17, 18
molecule,measurement,setting,value
"O=C[C@@H](O)[C@@H](O)[C@H](O)[C@H](O)COP(=O)(O)O [M6P, mannose-6-phosphate, reference compound]",accumulation of ASM-induced autophagosome,human fibroblast; [1],decreased
same,conversion to LC3-II,human fibroblast; [1],decreased
"Cl.N [NH4Cl, reference compound]",LC3-II level,"human fibroblast; fibroblast of human with Alzheimer's disease, serum-free medium (autophagy induced), NH4Cl added, FIG. 21",increased significantly
"CN(C)CCC=C1c2ccccc2CCc2ccccc21 [AMI, amitriptyline-hydrochloride, reference compound]",ASM in brain tissue,ASM,decreased
same,ASM in serum,ASM,decreased
same,deposition of β-amyloid,β-amyloid,inhibited
same,"ability to remember (escape latency, MWM)",APP/PS1 mice,recovered by decrease in escape latency
B1,amount of LC3-II (autophagic flux assay),"human fibroblast; cells treated with ASM and NH4Cl, FIG. 20",no significant change
same,accumulation of LC3-II,"human fibroblast; fibroblast of human with Alzheimer's disease, serum-free medium (autophagy induced), treated with ASM, FIG. 22",increased significantly
same,conversion from LC3-I to LC3-II,human fibroblast; [2],takes place depending on the concentration
same,expression of beclin-1,human fibroblast; [2],no significant change
